# How the values were obtained:
# [1] = molecular target: rat brain SERT (Rattus norvegicus, UniProt P31652); experiment: biochemical
# Protocol: The supernatant was removed and re-centrifuged at 15,000 rpm for 30 min. […] Membranes were incubated with 0.6 nM [^3H]-Citalopram plus/minus test compounds for 60 min at 25° C. and harvested by rapid filtration over GF/C glass fiber filters (pretreated with 0.3% polyethylenimine) followed by four washes with ice-cold buffer. Nonspecific binding was defined in the presence of 100 μM fluoxetine.
# [2] = molecular target: cloned human H3 receptor, stably expressed in SK-N-MC cells (Homo sapiens, UniProt Q9Y5N1); experiment: H3 receptor binding
# [3] = molecular target: human H3 receptor (Homo sapiens, UniProt Q9Y5N1); experiment: Cyclic AMP accumulation (reporter gene assay, SK-N-MC cells)
# Protocol: Sublines of SK-N-MC cells were created that expressed a reporter construct and the human H3 receptor. The reporter gene (β-galactosidase) is under the control of multiple cyclic AMP responsive elements. In 96-well plates, histamine was added directly to the cell media followed 5 min later by an addition of forskolin (5 μM final concentration). When appropriate, antagonists were added 10 min prior to agonist addition. After a 6-h incubation at 37° C., the media was aspirated and the cells washed with 200 μL of phosphate-buffered saline followed by a second aspiration. […] Color was developed using 25 μL of 1 mg/mL substrate solution (chlorophenolred β-D galactopyranoside; Roche Molecular Biochemicals, Indianapolis, Ind.).
# [4] = molecular target: human SERT (HEK293 membranes) (Homo sapiens, UniProt P31645); experiment: biochemical
# Chain of human SERT (HEK293 membranes) (P31645 whole entry): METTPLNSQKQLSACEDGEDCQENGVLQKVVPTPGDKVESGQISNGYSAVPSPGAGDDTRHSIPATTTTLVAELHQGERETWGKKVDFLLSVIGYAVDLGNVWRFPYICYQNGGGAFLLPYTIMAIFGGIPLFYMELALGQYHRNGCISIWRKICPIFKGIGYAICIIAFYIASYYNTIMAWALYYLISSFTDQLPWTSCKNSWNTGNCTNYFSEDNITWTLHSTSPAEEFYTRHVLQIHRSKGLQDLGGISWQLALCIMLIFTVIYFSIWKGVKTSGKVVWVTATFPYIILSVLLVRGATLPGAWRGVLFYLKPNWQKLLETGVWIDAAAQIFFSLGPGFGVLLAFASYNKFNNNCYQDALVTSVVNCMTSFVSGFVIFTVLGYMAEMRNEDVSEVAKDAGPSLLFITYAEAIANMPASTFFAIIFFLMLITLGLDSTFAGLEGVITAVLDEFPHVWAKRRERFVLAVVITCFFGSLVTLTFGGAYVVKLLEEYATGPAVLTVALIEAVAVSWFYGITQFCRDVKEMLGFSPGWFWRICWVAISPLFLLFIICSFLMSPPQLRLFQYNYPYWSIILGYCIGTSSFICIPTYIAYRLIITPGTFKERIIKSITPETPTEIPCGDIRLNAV
# Protocol: Homogenized HEK293 (Human Embryonic Kidney) membranes expressing the human SERT were incubated with ^3H-citalopram (SERT) at rt for 1 h in 50 mM Tris, 120 mM NaCl, 5 mM KCl (pH 7.4). Nonspecific binding was determined in the presence of 10 μM fluoxetine for the SERT. The membranes were washed and the radioactivity was counted as above.
# Chain of cloned human H3 receptor, stably expressed in SK-N-MC cells (Q9Y5N1 whole entry): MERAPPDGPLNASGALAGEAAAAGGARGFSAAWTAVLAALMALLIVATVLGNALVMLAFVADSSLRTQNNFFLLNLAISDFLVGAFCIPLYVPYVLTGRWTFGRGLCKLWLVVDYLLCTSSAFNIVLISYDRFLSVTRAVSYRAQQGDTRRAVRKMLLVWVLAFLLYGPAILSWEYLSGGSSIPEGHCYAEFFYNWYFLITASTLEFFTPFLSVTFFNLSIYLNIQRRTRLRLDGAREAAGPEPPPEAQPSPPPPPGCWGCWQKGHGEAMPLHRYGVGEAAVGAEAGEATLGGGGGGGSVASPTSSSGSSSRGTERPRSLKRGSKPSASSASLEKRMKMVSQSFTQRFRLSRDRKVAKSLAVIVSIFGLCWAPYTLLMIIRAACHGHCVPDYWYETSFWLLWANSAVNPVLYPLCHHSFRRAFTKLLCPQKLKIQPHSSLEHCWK
# Chain of rat brain SERT (P31652 whole entry): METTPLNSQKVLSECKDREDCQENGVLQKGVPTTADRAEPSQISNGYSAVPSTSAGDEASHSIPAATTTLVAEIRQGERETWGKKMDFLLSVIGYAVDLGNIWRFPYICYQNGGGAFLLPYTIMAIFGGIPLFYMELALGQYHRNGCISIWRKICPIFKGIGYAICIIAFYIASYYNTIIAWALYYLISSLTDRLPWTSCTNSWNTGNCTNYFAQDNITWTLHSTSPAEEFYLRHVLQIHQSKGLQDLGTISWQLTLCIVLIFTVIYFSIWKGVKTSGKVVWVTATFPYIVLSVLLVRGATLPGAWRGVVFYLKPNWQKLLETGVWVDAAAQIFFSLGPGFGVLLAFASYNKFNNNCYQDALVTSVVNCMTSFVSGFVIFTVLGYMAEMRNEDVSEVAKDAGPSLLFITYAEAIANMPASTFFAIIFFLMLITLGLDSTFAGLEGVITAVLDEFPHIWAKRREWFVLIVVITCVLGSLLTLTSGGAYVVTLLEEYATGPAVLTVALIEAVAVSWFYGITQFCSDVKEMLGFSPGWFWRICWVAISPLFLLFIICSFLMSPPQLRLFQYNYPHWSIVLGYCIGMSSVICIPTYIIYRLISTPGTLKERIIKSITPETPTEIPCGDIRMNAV
# Chain of human H3 receptor (Q9Y5N1 whole entry): as the sequence (Q9Y5N1 whole entry) above
SMILES,Ki [1],Ki [2],Kb [3],Ki [4]
"CNCc1cc(C(=O)N2CCCN(C3CC3)CC2)ccc1Sc1cc(C(F)(F)F)ccn1 [Example 47, (4-Cyclopropyl-[1,4]diazepan-1-yl)-[3-methylaminomethyl-4-(4-trifluoromethyl-pyridin-2-ylsulfanyl)-phenyl]-methanone]",410 nM,4 nM,,
"CNCc1cc(C(=O)N2CCCN(C3CC3)CC2)ccc1Oc1cccc(Cl)c1Cl [Example 35, (4-Cyclopropyl-[1,4]diazepan-1-yl)-[4-(2,3-dichloro-phenoxy)-3-methylaminomethyl-phenyl]-methanone]",15 nM,2 nM,,
"CNCc1cc(C(=O)N2CCCN(C3CC3)CC2)ccc1OCc1ccc(Cl)c(Cl)c1 [Example 42, (4-Cyclopropyl-[1,4]diazepan-1-yl)-[4-(3,4-dichloro-benzyloxy)-3-methylaminomethyl-phenyl]-methanone]",2 nM,4 nM,,
"CNCc1cc(C(=O)N2CCCN(C3CC3)CC2)ccc1Oc1cccc(F)c1F [Example 32, (4-Cyclopropyl-[1,4]diazepan-1-yl)-[4-(2,3-difluoro-phenoxy)-3-methylaminomethyl-phenyl]-methanone]",31 nM,0.6 nM,,
"O=C(c1ccc(CNC2CC2)c(Oc2cccnc2)c1)N1CCCN(C2CC2)CC1 [Example 40, [4-Cyclopropylaminomethyl-3-(pyridin-3-yloxy)-phenyl]-(4-cyclopropyl-[1,4]diazepan-1-yl)-methanone]",5000 nM,2 nM,0.501 nM,
"COCCN(CCOC)Cc1ccc(C(=O)N2CCCN(C3CC3)CC2)cc1OCc1ccccc1 [Example 54, (3-Benzyloxy-4-{[bis-(2-methoxy-ethyl)-amino]-methyl}-phenyl)-(4-cyclopropyl-[1,4]diazepan-1-yl)-methanone]",,2 nM,,
"CNCc1cc(C(=O)N2CCCN(C3CC3)CC2)ccc1Sc1ccccn1 [Example 38, (4-Cyclopropyl-[1,4]diazepan-1-yl)-[3-methylaminomethyl-4-(pyridin-2-ylsulfanyl)-phenyl]-methanone]",5000 nM,2 nM,,
"CN(Cc1cc(C(=O)N2CCCN(C3CC3)CC2)ccc1Oc1ccc(Cl)cc1)C1CC1 [Example 34, {4-(4-Chloro-phenoxy)-3-[(cyclopropyl-methyl-amino)-methyl]-phenyl}-(4-cyclopropyl-[1,4]diazepan-1-yl)-methanone]",62 nM,2 nM,,
"CNCc1cc(C(=O)N2CCCN(C3CC3)CC2)ccc1Sc1ccc(Cl)cc1 [Example 37, [4-(4-Chloro-phenylsulfanyl)-3-methylaminomethyl-phenyl]-(4-cyclopropyl-[1,4]diazepan-1-yl)-methanone]",5 nM,2 nM,,
"CC(C)N1CCCN(C(=O)c2ccc(CN3CCCCC3)c(OCc3ccccc3)c2)CC1 [Example 50, (3-Benzyloxy-4-piperidin-1-ylmethyl-phenyl)-(4-isopropyl-[1,4]diazepan-1-yl)-methanone]",,9 nM,,
"O=C(c1ccc(CN2CCCCC2)c(Oc2cccnc2)c1)N1CCCN(C2CC2)CC1 [Example 41, (4-Cyclopropyl-[1,4]diazepan-1-yl)-[4-piperidin-1-ylmethyl-3-(pyridin-3-yloxy)-phenyl]-methanone]",10000 nM,1 nM,0.0631 nM,
"CC(C)N1CCCN(C(=O)c2ccc(CN3CCOC(CO)C3)c(Oc3ccccc3)c2)CC1 (stereo not shown) [Example 53, [4-(2-Hydroxymethyl-morpholin-4-ylmethyl)-3-phenoxy-phenyl]-(4-isopropyl-[1,4]diazepan-1-yl)-methanone]",,3 nM,,
"CNCc1cc(C(=O)N2CCCN(C3CC3)CC2)ccc1Oc1ccccn1 [Example 39, (4-Cyclopropyl-[1,4]diazepan-1-yl)-[3-methylaminomethyl-4-(pyridin-2-yloxy)-phenyl]-methanone]",15 nM,0.9 nM,,
"Cc1ccc(Oc2cc(C(=O)N3CCCN(C(C)C)CC3)ccc2CN(C)C)c(C)n1 [Example 49, [4-Dimethylaminomethyl-3-(2,6-dimethyl-pyridin-3-yloxy)-phenyl]-(4-isopropyl-[1,4]diazepan-1-yl)-methanone]",2000 nM,11 nM,,
"CNCc1ccc(C(=O)N2CCCN(C3CC3)CC2)cc1Oc1ccc(Cl)c(Cl)c1 [Example 52, (4-Cyclopropyl-[1,4]diazepan-1-yl)-[3-(3,4-dichloro-phenoxy)-4-methylaminomethyl-phenyl]-methanone]",17 nM,6 nM,,
"CNCc1cc(C(=O)N2CCCN(C3CC3)CC2)ccc1Oc1ccc(F)cc1Cl [Example 33, [4-(2-Chloro-4-fluoro-phenoxy)-3-methylaminomethyl-phenyl]-(4-cyclopropyl-[1,4]diazepan-1-yl)-methanone]",28 nM,0.9 nM,,
"Cc1ccc(Oc2ccc(C(=O)N3CCCN(C4CC4)CC3)cc2CN(C)C)cn1 [Example 36, (4-Cyclopropyl-[1,4]diazepan-1-yl)-[3-dimethylaminomethyl-4-(6-methyl-pyridin-3-yloxy)-phenyl]-methanone]",59 nM,2 nM,,
"O=C(c1ccc(CN2CCOCC2)c(Oc2cccnc2)c1)N1CCCN(C2CC2)CC1 [Example 51, (4-Cyclopropyl-[1,4]diazepan-1-yl)-[4-morpholin-4-ylmethyl-3-(pyridin-3-yloxy)-phenyl]-methanone]",,3 nM,,
"CNCc1cc(C(=O)N2CCCN(C3CCC3)CC2)ccc1Oc1ccc(Cl)c(Cl)c1 [Example 48, (4-Cyclobutyl-[1,4]diazepan-1-yl)-[4-(3,4-dichloro-phenoxy)-3-methylaminomethyl-phenyl]-methanone]",7.9 nM,5.2 nM,,9.8 nM
